Measured values from patent US12129237B2, “Substituted diaminocarboxamide and diaminocarbonitrile pyrimidines, compositions thereof, and methods of treatment therewith” (SIGNAL PHARMACEUTICALS, LLC, priority 2011, dated 2024).

target: T1, JNK1 (Homo sapiens, UniProt P45983); experiment: JNK1 biochemical assays (one or more of: time resolved fluorescence, Z'-LYTE Cascade, radioactive); conditions: tested in one or more of the JNK1 biochemical assays; read-out: Act. Level (JNK1 biochemical assay IC50 activity level)
T1 construct: purchased Carna Biosciences
T1 sequence (P45983 whole entry): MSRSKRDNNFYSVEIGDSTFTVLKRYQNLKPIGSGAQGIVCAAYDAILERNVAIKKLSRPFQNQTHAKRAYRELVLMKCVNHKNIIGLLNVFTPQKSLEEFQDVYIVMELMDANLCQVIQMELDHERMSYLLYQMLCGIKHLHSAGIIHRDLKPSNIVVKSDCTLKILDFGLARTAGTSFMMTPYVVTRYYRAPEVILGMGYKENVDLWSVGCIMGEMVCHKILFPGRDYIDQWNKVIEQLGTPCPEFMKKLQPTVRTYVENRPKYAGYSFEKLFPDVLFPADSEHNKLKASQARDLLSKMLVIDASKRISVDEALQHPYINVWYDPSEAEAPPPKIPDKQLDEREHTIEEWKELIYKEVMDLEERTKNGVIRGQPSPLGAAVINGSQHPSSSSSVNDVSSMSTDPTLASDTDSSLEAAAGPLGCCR
Experimental: JNK1 Assay. A 384-well time resolved fluorescence assay was used to monitor JNK1 activity. The JNK1 assay was run in the following assay buffer: 50 mM HEPES, 10 mM MgCl2, 1 mM EGTA, 2 mM DTT, and 0.01% Tween 20. To initiate the reaction 100 nM of ULight™-labeled 4EBP1 peptide (Perkin-Elmer) and 5 μM of ATP were mixed with 500 pM of JNK1 (Carna Biosciences), for a total assay volume of 20 μL in each well. The assay was incubated at room temperature for 1 h and terminated using a mixture of 30 mM EDTA and 4 nM Eu-anti-4EBP1, by adding 20 μL of stop solution to each well. Plates were read on a Perkin-Elmer Envision Reader.
JNK1 Assay. The JNK1 Z′-LYTE® Cascade kinase assay was run in the following buffer: 50 mM HEPES at pH 7.5, 0.01% BRIJ-35, 10 mM MgCl2, 1 mM EGTA, and 1 mM DTT. […] The assay was incubated at room temperature for 1 h. […] The data was then read on a fluorescence plate reader and analyzed.
JNK1 assay. The radioactive JNK kinase assay was carried out in a 96-well plate format at a final volume of 100 μL. […] JNK1 was diluted in the following dilution buffer (20 mM HEPES pH 7.6, 0.1 mM EDTA, 2.5 mM MgCl2, 0.004% (w/v) Triton X100, 2 μg/ml Leupeptin, 20 mM B-glycerol phosphate, 0.1 mM Na3VO4 dithiothreitol) and then pre-mixed with cJun diluted in the substrate solution buffer (20 mM HEPES pH 7.6, 50 mM NaCl, 0.1 mM EDTA, 2.5 mM MgCl2, 0.05% (w/v) Triton X100). […] The enzyme, substrate and inhibitor mixture was allowed to equilibrate at room temperature for 15 minutes. The reaction was started by the addition of 10 μL of 10×ATP in kinase buffer (130 mM MgCl2, 6 mM dithiothreitol, 150 mM para-nitrophenyl phosphate, 100 μCi/ml γ-[^33P]-ATP). Reactions were allowed to proceed for 60 minutes before precipitation of protein via trichloroacetic acid (7.2% TCA final). […] The precipitate was washed with Phosphate Buffered Saline and the amount of phosphate incorporated into cJun was quantified by scintillation counting using a Packard Topcount-NXT. All assays were conducted under conditions where phosphate incorporation was linear with respect to time and enzyme concentration.

| IC50 [nM] | SMILES |
| --- | --- |
| < 200 | CO[C@H]1CC[C@H](Nc2ncc(C(N)=O)c(N[C@H]3CC[C@@H](N)CC3)n2)CC1 [Example A-120, 4-((1s,4s)-4-aminocyclohexylamino)-2-((1r,4r)-4-methoxycyclohexylamino)pyrimidine-5-carboxamide] |
| < 200 | CO[C@H]1CC[C@H](Nc2ncc(C(N)=O)c(NC3CCC4(CC3)OCCO4)n2)CC1 [Example A-121, 4-(1,4-dioxaspiro[4.5]decan-8-ylamino)-2-((1r,4r)-4-methoxycyclohexylamino)pyrimidine-5-carboxamide] |
| < 200 | C[C@H](Nc1ncc(C(N)=O)c(N[C@H]2CC[C@@H](CO)CC2)n1)C1CCCCC1 [Example A-122, 2-((S)-1-cyclohexylethylamino)-4-((1s,4R)-4-(hydroxymethyl)cyclohexylamino)pyrimidine-5-carboxamide] |
| < 200 | COC(=O)N1CCC(Nc2ncc(C(N)=O)c(NC3CCCCC3)n2)CC1 [Example A-123, methyl 4-(5-carbamoyl-4-(cyclohexylamino)pyrimidin-2-ylamino)piperidine-1-carboxylate] |
| < 200 | CCC(=O)N[C@H]1CC[C@@H](Nc2nc(N[C@@H](C)C3CCCCC3)ncc2C(N)=O)CC1 [Example A-124, 2-((S)-1-cyclohexylethylamino)-4-((1s,4R)-4-propionamidocyclohexylamino)pyrimidine-5-carboxamide] |
| < 200 | C[C@H](Nc1ncc(C(N)=O)c(N[C@H]2CC[C@@H](O)CC2)n1)C1CCCCC1 [Example A-125, 2-((S)-1-cyclohexylethylamino)-4-((1s,4R)-4-hydroxycyclohexylamino)pyrimidine-5-carboxamide] |
| < 200 | C[C@H](Nc1ncc(C(N)=O)c(N[C@H]2CC[C@@H](N)CC2)n1)C1CCCCC1 [Example A-126, 4-((1s,4R)-4-aminocyclohexylamino)-2-((S)-1-cyclohexylethylamino)pyrimidine-5-carboxamide] |
| < 200 | CC(=O)N1CCC(Nc2nc(N[C@@H](C)C3CCCCC3)ncc2C(N)=O)CC1 [Example A-127, (S)-4-(1-acetylpiperidin-4-ylamino)-2-(1-cyclohexylethylamino)pyrimidine-5-carboxamide] |
| < 200 | NC(=O)c1cnc(NC2CCCC2)nc1N[C@H]1CC[C@@H](O)CC1 [Example A-128, 2-(cyclopentylamino)-4-((1s,4s)-4-hydroxycyclohexylamino)pyrimidine-5-carboxamide] |
| 200 to 800 | CCC(=O)N[C@H]1CC[C@@H](Nc2nc(NC3CCCC3)ncc2C(N)=O)CC1 [Example A-129, 2-(cyclopentylamino)-4-((1s,4s)-4-propionamidocyclohexylamino)pyrimidine-5-carboxamide] |
| 1000 to 10000 | CNC(=O)[C@H]1CC[C@@H](Nc2nc(NC3CCCC3)ncc2C(N)=O)CC1 [Example A-130, 2-(cyclopentylamino)-4-((1s,4s)-4-(methylcarbamoyl)cyclohexylamino)pyrimidine-5-carboxamide] |
| < 200 | NC[C@H]1CC[C@@H](Nc2nc(NC3CCCC3)ncc2C(N)=O)CC1 [Example A-131, 4-((1s,4s)-4-(aminomethyl)cyclohexylamino)-2-(cyclopentylamino)pyrimidine-5-carboxamide] |
| 1000 to 10000 | NC(=O)c1cnc(NC2CCC2)nc1N[C@H]1CC[C@@H](C(=O)NC2CC2)CC1 [Example A-132, 2-(cyclobutylamino)-4-((1s,4s)-4-(cyclopropylcarbamoyl)cyclohexylamino)pyrimidine-5-carboxamide] |
| 800 to 1000 | NC(=O)c1cnc(NC2CCC2)nc1N[C@H]1CC[C@@H](C(=O)N2CCCCC2)CC1 [Example A-133, 2-(cyclobutylamino)-4-((1s,4s)-4-(piperidine-1-carbonyl)cyclohexylamino)pyrimidine-5-carboxamide] |
| 1000 to 10000 | CN(C)C(=O)[C@H]1CC[C@@H](Nc2nc(NC3CCC3)ncc2C(N)=O)CC1 [Example A-134, 2-(cyclobutylamino)-4-((1s,4s)-4-(dimethylcarbamoyl)cyclohexylamino)pyrimidine-5-carboxamide] |
| 200 to 800 | CCO[C@H]1CC[C@@H](Nc2nc(NC3CCC3)ncc2C(N)=O)CC1 [Example A-135, 2-(cyclobutylamino)-4-((1s,4s)-4-ethoxycyclohexylamino)pyrimidine-5-carboxamide] |
| 200 to 800 | NC(=O)c1cnc(NC2CC2)nc1N[C@H]1CC[C@@H](CO)CC1 [Example A-136, 2-(cyclopropylamino)-4-((1s,4s)-4-(hydroxymethyl)cyclohexylamino)pyrimidine-5-carboxamide] |
| 1000 to 10000 | CCNC(=O)[C@H]1CC[C@@H](Nc2nc(NC3CC3)ncc2C(N)=O)CC1 [Example A-137, 2-(cyclopropylamino)-4-((1s,4s)-4-(ethylcarbamoyl)cyclohexylamino)pyrimidine-5-carboxamide] |
| 800 to 1000 | CC(C)CC(=O)N[C@H]1CC[C@@H](Nc2nc(NC3CC3)ncc2C(N)=O)CC1 [Example A-138, 2-(cyclopropylamino)-4-((1s,4s)-4-(3-methylbutanamido)cyclohexylamino)pyrimidine-5-carboxamide] |

| IC50 [nM] | SMILES |
| --- | --- |
| 200 to 800 | CC(C)Nc1ncc(C(N)=O)c(N[C@H]2CC[C@@H](CO)CC2)n1 [Example A-139, 4-((1s,4s)-4-(hydroxymethyl)cyclohexylamino)-2-(isopropylamino)pyrimidine-5-carboxamide] |
| 200 to 800 | CC(C)Nc1ncc(C(N)=O)c(N[C@H]2CC[C@@H](C(C)(C)O)CC2)n1 [Example A-140, 4-((1s,4s)-4-(2-hydroxypropan-2-yl)cyclohexylamino)-2-(isopropylamino)pyrimidine-5-carboxamide] |
| 1000 to 10000 | CCNC(=O)[C@H]1CC[C@@H](Nc2nc(NC(C)C)ncc2C(N)=O)CC1 [Example A-141, 4-((1s,4s)-4-(ethylcarbamoyl)cyclohexylamino)-2-(isopropylamino)pyrimidine-5-carboxamide] |
| 200 to 800 | CC(C)Nc1ncc(C(N)=O)c(N[C@H]2CC[C@@H](NC(=O)C(C)C)CC2)n1 [Example A-142, 4-((1s,4s)-4-isobutyramidocyclohexylamino)-2-(isopropylamino)pyrimidine-5-carboxamide] |
| 800 to 1000 | CC(C)Nc1ncc(C(N)=O)c(N[C@H]2CC[C@@H](C(=O)N3CCCC3)CC2)n1 [Example A-143, 2-(isopropylamino)-4-((1s,4s)-4-(pyrrolidine-1-carbonyl)cyclohexylamino)pyrimidine-5-carboxamide] |
| < 200 | NC(=O)c1cnc(N[C@H]2CC[C@H](O)CC2)nc1NC1CCCCC1 [Example A-144, 4-(cyclohexylamino)-2-((1r,4r)-4-hydroxycyclohexylamino)pyrimidine-5-carboxamide] |
| < 200 | NC(=O)c1cnc(NC2CCCCC2)nc1N[C@H]1CC[C@@H](C(N)=O)CC1 [Example A-146, 4-((1s,4s)-4-carbamoylcyclohexylamino)-2-(cyclohexylamino)pyrimidine-5-carboxamide] |
| < 200 | NC(=O)c1cnc(NC2CCCCC2)nc1N[C@H]1CC[C@@H](O)CC1 [Example A-147, 2-(cyclohexylamino)-4-((1s,4s)-4-hydroxycyclohexylamino)pyrimidine-5-carboxamide] |
| < 200 | NC(=O)c1cnc(N[C@H]2CC[C@H](O)CC2)nc1NC1CCCC1 [Example A-148, 4-(cyclopentylamino)-2-((1r,4r)-4-hydroxycyclohexylamino)pyrimidine-5-carboxamide] |
| < 200 | NC(=O)c1cnc(NC2CCCCC2)nc1NC1CCCC1 [Example A-149, 2-(cyclohexylamino)-4-(cyclopentylamino)pyrimidine-5-carboxamide] |
| < 200 | CC1(Nc2ncc(C(N)=O)c(N[C@@H]3CCC[C@H](O)C3)n2)CCOCC1 [Example A-151, 4-((1R,3S)-3-hydroxycyclohexylamino)-2-(4-methyltetrahydro-2H-pyran-4-ylamino)pyrimidine-5-carboxamide] |
| < 200 | NC(=O)c1cnc(N[C@H]2CC[C@H](N3CCCC3)CC2)nc1N[C@@H]1CCC[C@H](O)C1 [Example A-153, 4-((1R,3S)-3-hydroxycyclohexylamino)-2-((1r,4R)-4-(pyrrolidin-1-yl)cyclohexylamino)pyrimidine-5-carboxamide] |
| < 200 | NC(=O)c1cnc(N[C@H]2CC[C@H](OCC(F)(F)F)CC2)nc1N[C@@H]1CCC[C@H]1O [Example A-156, 4-((1R,2R)-2-hydroxycyclopentylamino)-2-((1r,4R)-4-(2,2,2-trifluoroethoxy)cyclohexylamino)pyrimidine-5-carboxamid] |
| < 200 | CCO[C@H]1CC[C@H](Nc2ncc(C(N)=O)c(N[C@@H]3CCC[C@](C)(O)C3)n2)CC1 [Example A-157, 2-((1r,4R)-4-ethoxycyclohexylamino)-4-((1R,3S)-3-hydroxy-3-methylcyclohexylamino)pyrimidine-5-carboxamide] |
| < 200 | CCO[C@H]1CC[C@H](Nc2ncc(C(N)=O)c(N[C@@H]3CCCC[C@H](O)C3)n2)CC1 [Example A-158, 2-((1r,4R)-4-ethoxycyclohexylamino)-4-((1R,3S)-3-hydroxycycloheptylamino)pyrimidine-5-carboxamide] |
| < 200 | NC(=O)c1cnc(NC23CCC(CC2)CC3)nc1N[C@@H]1CCC[C@H](O)C1 [Example A-159, 2-(bicyclo[2.2.2]octan-1-ylamino)-4-((1R,3S)-3-hydroxycyclohexylamino)pyrimidine-5-carboxamide] |
| < 200 | NC(=O)c1cnc(N[C@H]2CC[C@H](OCC(F)(F)F)CC2)nc1N[C@@H]1CCCC[C@H](O)C1 [Example A-160, 4-((1R,3S)-3-hydroxycycloheptylamino)-2-((1r,4R)-4-(2,2,2-trifluoroethoxy)cyclohexylamino)pyrimidine-5-carboxamid] |
| < 200 | CC[C@]1(O)CCC[C@@H](Nc2nc(N[C@H]3CC[C@H](OC)CC3)ncc2C(N)=O)C1 [Example A-161, 4-((1R,3S)-3-ethyl-3-hydroxycyclohexylamino)-2-((1r,4R)-4-methoxycyclohexylamino)pyrimidine-5-carboxamide] |
